Like-named read-outs stand apart in the source and are kept apart here.
Target: T1, Human AhR (Homo sapiens, UniProt P35869)
T1 construct: expressed in transfected cells
T1 sequence (P35869 11-848): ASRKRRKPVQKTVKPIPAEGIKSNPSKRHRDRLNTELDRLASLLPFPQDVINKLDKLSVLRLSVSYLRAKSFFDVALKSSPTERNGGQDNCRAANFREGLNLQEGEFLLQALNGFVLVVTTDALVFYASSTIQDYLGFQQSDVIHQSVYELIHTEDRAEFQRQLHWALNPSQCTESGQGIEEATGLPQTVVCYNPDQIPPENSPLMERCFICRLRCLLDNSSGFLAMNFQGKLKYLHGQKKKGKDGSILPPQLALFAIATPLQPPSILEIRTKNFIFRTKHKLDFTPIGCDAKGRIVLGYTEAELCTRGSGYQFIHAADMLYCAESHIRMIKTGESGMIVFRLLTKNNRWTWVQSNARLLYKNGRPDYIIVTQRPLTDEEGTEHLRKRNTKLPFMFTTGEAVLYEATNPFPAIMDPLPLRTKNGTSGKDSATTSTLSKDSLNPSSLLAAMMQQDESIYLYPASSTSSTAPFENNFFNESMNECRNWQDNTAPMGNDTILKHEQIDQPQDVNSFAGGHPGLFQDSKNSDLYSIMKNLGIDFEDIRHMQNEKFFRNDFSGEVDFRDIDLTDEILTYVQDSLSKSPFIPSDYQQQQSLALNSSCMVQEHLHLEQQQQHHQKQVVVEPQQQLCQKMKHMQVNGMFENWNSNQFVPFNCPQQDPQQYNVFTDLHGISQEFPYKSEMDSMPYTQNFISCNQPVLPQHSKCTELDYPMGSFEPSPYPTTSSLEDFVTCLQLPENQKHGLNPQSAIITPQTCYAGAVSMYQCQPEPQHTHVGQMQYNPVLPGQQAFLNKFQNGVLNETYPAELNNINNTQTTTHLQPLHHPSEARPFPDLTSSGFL
Experiment: hAHR Nuclear Translocation Assay
Format: cell-based
Conditions: AhR-EGFP nuclear translocation in Jump-In T-REx HEK293 cells, 45 minutes incubation, read-out: Rel EC50
Source text: The purpose of this assay is to measure the ability of compounds to bind to, activate, and induce the translocation of AhR into the nucleus of a cell for transcription. Stable cell lines were established using Jump-InTM T-RExTM HEK293 Retargeting Kit (Life Technologies). Human AhR cDNA was cloned into the pJTI R4 CMV-TO EGFP vector. The EGFP was cloned to the C-terminal of AHR to form AhR-EGFP chimera. The pJTI R4 CMV-TO AhR-EGFP vector was transfected using FuGENE® HD into Jump-InTM T-RExTM HEK293 cells. Transfected cells were selected using 2.5 mg/ml G418 for 10 to 14 days, then expanded, harvested, and suspended in freeze media (FBS with 8% DMSO) at 2×10^7 cells/ml, and aliquots were stored in liquid nitrogen. One day before the assay date, cells were thawed and resuspended in DMEM with 5% FBS in the presence of 1 μg/ml Doxycycline and plated into ploy-L-Lysine coated […]-384 ULTRA Microplates (Perkin Elmer) at 12,000 to 15,000 cells per well and incubated at 37° C. and 5% CO2 overnight. On the assay date, compound was serially diluted (1:2) into 384-well nunc plates with DMSO using acoustic dispensing (ECHO®). The dose response was a 20-point curve. […] The culture media was damped and 25 μl of DMEM plus 0.1% BSA was added, then 25 μL of compound in DMEM plus 0.1% BSA was added into cell plates. Cells were incubated compounds at 37° C. and 5% CO2 for 45 minutes. The final DMSO concentration was 0.2%. The media was damped after 45 minutes incubation. The cells were fixed with 40 μl of cold MeOH (-20° C.) for 20 minutes. The MeOH was damped and 50 μL of DPBS containing 1 μg/mL Hochst was added into the cell plates. The intensity of EGFP was quantitated by using Opera PHENIX® or OPERETTA® high content image system (Perkin Elmer) with 20× Water Objective and five field per well. The ratio of EGFP fluorescent intensity in nuclear over cytosol was analyzed using a 4-parameter nonlinear logistic equation to determine the potency of AhR agonists.

EC50 (class symbols) [µM] | EC50 (numeric values) [µM] | Compound
0.001 to 0.01 | – | CCC1CCc2c1cc(C(=O)Nc1ncc(F)cn1)c1nncn21 (single isomer, unassigned) [Example 57, 6-Ethyl-N-(5-fluoropyrimidin-2-yl)-7,8-dihydro-6H-cyclopenta[e][1,2,4] triazolo[4,3-a]pyridine-4-carboxamide]
– | 0.00132 | C[C@H]1CCc2c1cc(C(=O)Nc1ccccn1)c1nccn21 (single isomer, unassigned) [Example 10, 6-Methyl-N-(pyridin-2-yl)-7,8-dihydro-6H-cyclopenta[e]imidazo[1,2-a]pyridine-4-carboxamide]
0.001 to 0.01 | – | CC1CCc2c1cc(C(=O)Nc1ccns1)c1nncn21 (single isomer, unassigned) [Example 39, N-(Isothiazol-5-yl)-6-methyl-7,8-dihydro-6H-cyclopenta[e][1,2,4] triazolo[4,3-a]pyridine-4-carboxamide]
0.01 to 0.05 | – | CC1CCc2c1cc(C(=O)Nc1ccn(C)n1)c1nncn21 (single isomer, unassigned) [Example 63, 6-Methyl-N-(1-methyl-1H-pyrazol-3-yl)-7,8-dihydro-6H-cyclopenta[e][1,2,4] triazolo[4,3-a]pyridine-4-carboxamide]
0.01 to 0.05 | – | Cc1cnc(NC(=O)c2cc3c(n4cnnc24)CCC3C)nc1 (single isomer, unassigned) [Example 29, 6-Methyl-N-(5-methylpyrimidin-2-yl)-7,8-dihydro-6H-cyclopenta[e][1,2,4]tria zolo[4,3-a]pyridine-4-carboxamide]
0.01 to 0.05 | – | CC1CCc2c1cc(C(=O)Nc1ncco1)c1nncn21 (single isomer, unassigned) [Example 30, 6-Methyl-N-(oxazol-2-yl)-7,8-dihydro-6H-cyclopenta[e][1,2,4] triazolo[4,3-a]pyridine-4-carboxamide]
– | 0.0253 | C[C@H]1CCc2c1cc(C(=O)Nc1ncccn1)c1nncn21 (single isomer, unassigned) [Example 8, 6-Methyl-N-(pyrimidin-2-yl)-7,8-dihydro-6H-cyclopenta[e][1,2,4]triazolo [4,3-a]pyridine-4-carboxamide]
– | 0.00337 | CC1CCc2c1cc(C(=O)Nc1ccccn1)c1nccn21 (single isomer, unassigned) [Example 9, 6-Methyl-N-(pyridin-2-yl)-7,8-dihydro-6H-cyclopenta[e]imidazo[1,2-a]pyridine-4-carboxamide]
0.01 to 0.05 | – | CCC(C)C1CCc2c1cc(C(=O)Nc1ncc(F)cn1)c1nncn21 (single isomer, unassigned) [Example 60, 6-(sec-butyl)-N-(5-Fluoropyrimidin-2-yl)-7,8-dihydro-6H-cyclopenta[e][1,2,4] triazolo[4,3-a]pyridine-4-carboxamide]
> 0.05 | – | CC(C)c1nnc2c(C(=O)Nc3ncc(F)cn3)cc3c(n12)CCC3C (single isomer, unassigned) [Example 54, N-(5-Fluoropyrimidin-2-yl)-1-isopropyl-6-methyl-7,8-dihydro-6H-cyclopenta[e][1,2,4] triazolo[4,3-a]pyridine-4-carboxamide]
0.01 to 0.05 | – | CC1CCc2c1cc(C(=O)Nc1ncco1)c1nncn21 (single isomer, unassigned) [Example 31, 6-Methyl-N-(oxazol-2-yl)-7,8-dihydro-6H-cyclopenta[e][1,2,4] triazolo[4,3-a]pyridine-4-carboxamide]
0.01 to 0.05 | – | CC1CCc2c1cc(C(=O)Nc1ccno1)c1nncn21 (single isomer, unassigned) [Example 45, N-(Isoxazol-5-yl)-6-methyl-7,8-dihydro-6H-cyclopenta[e][1,2,4] triazolo[4,3-a]pyridine-4-carboxamide]
0.001 to 0.01 | – | O=C(Nc1ncc(F)cn1)c1cc2c(n3cnnc13)CCC2C1CC1 (single isomer, unassigned) [Example 66, 6-Cyclopropyl-N-(5-fluoropyrimidin-2-yl)-7,8-dihydro-6H-cyclopenta[e][1,2,4] triazolo[4,3-a]pyridine-4-carboxamide]
> 0.05 | – | CC(C)OC1CCc2c1cc(C(=O)Nc1ncc(F)cn1)c1nncn21 (single isomer, unassigned) [Example 50, N-(5-Fluoropyrimidin-2-yl)-6-isopropoxy-7,8-dihydro-6H-cyclopenta[e][1,2,4] triazolo[4,3-a]pyridine-4-carboxamide]
– | 0.00537 | CC1CCc2c1cc(C(=O)Nc1ccccn1)c1nncn21 (single isomer, unassigned) [Example 3]
0.01 to 0.05 | – | CC1CCc2c1cc(C(=O)Nc1cnn(C)n1)c1nncn21 (single isomer, unassigned) [Example 62, 6-Methyl-N-(2-methyl-2H-1,2,3-triazol-4-yl)-7,8-dihydro-6H-cyclopenta[e][1,2,4] triazolo[4,3-a]pyridine-4-carboxamide]
> 0.05 | – | CC1CCc2c1cc(C(=O)Nc1ccccn1)c1nncn21 (single isomer, unassigned) [Example 4]
> 0.05 | – | CC(C)OC1CCc2c1cc(C(=O)Nc1ncc(F)cn1)c1nncn21 (single isomer, unassigned) [Example 51, N-(5-Fluoropyrimidin-2-yl)-6-isopropoxy-7,8-dihydro-6H-cyclopenta[e][1,2,4] triazolo[4,3-a]pyridine-4-carboxamide]
0.01 to 0.05 | – | Cc1cnc(NC(=O)c2cc3c(n4cnnc24)CCC3C)nc1 (single isomer, unassigned) [Example 28, 6-Methyl-N-(5-methylpyrimidin-2-yl)-7,8-dihydro-6H-cyclopenta[e][1,2,4]tria zolo[4,3-a]pyridine-4-carboxamide]
0.001 to 0.01 | – | CC1CCc2c1cc(C(=O)Nc1ncc(C(F)(F)F)cn1)c1nncn21 (single isomer, unassigned) [Example 26, 6-Methyl-N-(5-(trifluoromethyl)pyrimidin-2-yl)-7,8-dihydro-6H-cyclopenta[e][1,2,4] triazolo[4,3-a]pyridine-4-carboxamide]
0.01 to 0.05 | – | CC(C)C1CCc2c1cc(C(=O)Nc1ncc(F)cn1)c1nncn21 (single isomer, unassigned) [Example 59, N-(5-Fluoropyrimidin-2-yl)-6-isopropyl-7,8-dihydro-6H-cyclopenta[e][1,2,4] triazolo[4,3-a]pyridine-4-carboxamide]
0.001 to 0.01 | – | CC1CCc2c1cc(C(=O)Nc1ccc(F)cn1)c1nncn21 (single isomer, unassigned) [Example 43, N-(5-Fluoropyridin-2-yl)-6-methyl-7,8-dihydro-6H-cyclopenta[e][1,2,4]triazolo[4,3-a]pyridine-4-carboxamide]
0.001 to 0.01 | – | CC(C)C1CCc2c1cc(C(=O)Nc1ncc(F)cn1)c1nncn21 (single isomer, unassigned) [Example 58, N-(5-Fluoropyrimidin-2-yl)-6-isopropyl-7,8-dihydro-6H-cyclopenta[e][1,2,4] triazolo[4,3-a]pyridine-4-carboxamide]
> 0.05 | – | Cc1nnc2c(C(=O)Nc3ncc(F)cn3)cc3c(n12)CCC3C (single isomer, unassigned) [Example 53, N-(5-Fluoropyrimidin-2-yl)-1,6-dimethyl-7,8-dihydro-6H-cyclopenta[e][1,2,4] triazolo[4,3-a]pyridine-4-carboxamide]
